Consider 24 compounds from US20220024921A1, “1,3,4-OXADIAZOLONE COMPOUND AND PHARMACEUTICAL” (NIPPON SHINYAKU CO., LTD., priority 2018, published 2022).

Assay [1] concerns the target T1, PIM1 serine/threonine kinase (Homo sapiens, UniProt P11309).
T1 construct: purchased Carna Bioscience, Inc
As to the kind of experiment: PIM1 serine/threonine kinase inhibitory effect. Type of assay: biochemical. The conditions noted are these: PIM1 serine/threonine kinase activity; ATP 40 μM; 30° C., 30 minutes. In outline:
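Compounds were tested in duplicate from 0.01 to 10000 nM final against PIM1 kinase (0.15 μg/ml). The reaction ran for 30 minutes at 30° C with 40 μM ATP and 0.5 μM biotin-tagged substrate at pH 7.0. Phosphorylation was read by time-resolved FRET (OD665/OD620) after 1 h; IC50 by non-linear fit.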

In assay [2] the target is PIM1 transgenic cells (Ba/F3) (Homo sapiens, UniProt P11309). As to the kind of experiment: Proliferation inhibitory effect on PIM1 transgenic cells. Type of assay: cell-based, mouse. The conditions noted are these: proliferation inhibition, 72 hours, Cell Counting Kit-8, read-out: PIM1 IC50. The source says:
Human PIM1, 2, and 3 genes were inserted into the multi-cloning sites of retrovirus expression vectors pMYs-IRES-GFP, respectively, to prepare gene transfer vectors. Then, each gene transfer vector was introduced into packaging cells PLAT-E derived from a human fetal kidney cell line in the logarithmic growth phase, using a transfection reagent (FuGENE6, Promega Corporation). Since the culture supernatant of PLAT-E after gene transfer contained virus particles for gene transfer, the culture supernatant was collected and used as a medium for gene transfer. The medium for gene transfer was added to a plate coated with RetroNectin, and the plate was incubated to attach the virus particles to the plate. Then, a mouse pro-B cell line Ba/F3 in the logarithmic growth phase was seeded on the plate and infected with the virus to prepare PIM1, 2, or 3 transgenic cells that proliferate in a PIM 1, 2, or 3-dependent manner. The expression of PIM1, 2, or 3 protein in each cell was confirmed by Western blotting.
Each test substance was prepared to 10 mM with dimethylsulfoxide (DMSO), and diluted with DMSO so as to have concentrations of 3000, 1000, 300, 100, 30, 10, 3, and 1 μM. Moreover, each dilution was further diluted 10-fold with distilled water to prepare a test substance solution.
PIM1, 2, 3-expressing cells were seeded on a 96-well plate, and each test substance solution prepared the next day was added such that final concentrations were 10000, 3000, 1000, 300, 100, 30, 10, 3, and 1 nM. 72 hours after the addition, 10 μL of Cell Counting Kit-8 (DOJINDO LABORATORIES) was added to each well. After incubation for 1 to 4 hours, absorbance OD450 at 450 nm was measured. In addition, absorption OD650 at 650 nm as a reference wavelength was measured.
OD450-OD650 for each condition was calculated, and then the inhibition rates when OD450-OD650 of negative control (DMSO only) and OD450-OD650 of Blank (without cells) were set to 0% and 100%, respectively, were calculated. Then, non-linear regression analysis was performed for logarithmic dose and inhibition rate using a two-parameter logistic model to estimate IC50 values.
For orientation: Formazan colour is commonly taken as a measure of viable cells.

Structures can show the parent of a compound that is named as a salt.

PIM1 transgenic cells (Ba/F3), sequence (P11309 whole entry, stated change not applied): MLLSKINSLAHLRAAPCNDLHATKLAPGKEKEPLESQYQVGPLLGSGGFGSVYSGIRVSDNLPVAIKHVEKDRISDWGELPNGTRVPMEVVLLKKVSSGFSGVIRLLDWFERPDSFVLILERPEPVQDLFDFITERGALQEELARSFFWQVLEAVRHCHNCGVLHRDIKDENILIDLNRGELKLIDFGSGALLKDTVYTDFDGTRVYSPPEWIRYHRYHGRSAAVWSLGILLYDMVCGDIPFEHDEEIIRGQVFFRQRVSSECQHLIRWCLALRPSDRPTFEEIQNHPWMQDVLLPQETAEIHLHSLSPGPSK
T1 sequence (P11309 whole entry): as the sequence (P11309 whole entry, stated change not applied) above

For `O=c1[nH]nc(-c2ccc(Cl)c(NC3CCNCC3)c2)o1` [Example 31, 5-{4-chloro-3-[(piperidin-4-yl)amino]phenyl}-1,3,4-oxadiazol-2(3H)-one hydrochloride], half-maximal inhibition in assay [1] (IC50) was put at 70 nM. Further, the GI50 in assay [2] came to 3300 nM.
For the compound `N[C@H]1CC[C@H](CSc2cc(-c3n[nH]c(=O)o3)ccc2C(F)(F)F)CC1` [Example 234, 5-[3-({[(1r,4r)-4-aminocyclohexyl]methyl}sulfanyl)-4-(trifluoromethyl)phenyl]-1,3,4-oxadiazol-2(3H)-one], in assay [1], the IC50 (as a rule, the concentration that gives 50% inhibition) amounted to 2.6 nM. The GI50 in assay [2] was determined as 120 nM.
`C[C@@H]1CNCC[C@@H]1[C@H](C)Nc1cc(-c2n[nH]c(=O)o2)cc(F)c1Cl` [Example 222, 5-[4-chloro-3-fluoro-5-({(1S)-1-[(3S,4S)-3-methylpiperidin-4-yl]ethyl}amino)phenyl]-1,3,4-oxadiazol-2(3H)-one] came in with a half-inhibitory concentration (IC50) in assay [1] of 2.4 nM. Also, the GI50 in assay [2] was 19 nM.
As for `CC1(C)[C@H](CNc2cc(-c3n[nH]c(=O)o3)ccc2C(F)(F)F)C[C@@H]1N` [Example 166, 5-[3-({[(1R,3S)-3-amino-2,2-dimethylcyclobutyl]methyl}amino)-4-(trifluoromethyl)phenyl]-1,3,4-oxadiazol-2(3H)-one hydrochloride], in assay [1], half-maximal inhibition (IC50) was put at 2.3 nM. In addition, the GI50 in assay [2] was determined as 26 nM.
Turning to `C[C@H](Nc1cc(-c2n[nH]c(=O)o2)cc(F)c1Br)C1CCNCC1` [Example 83, 5-(4-bromo-3-fluoro-5-{[(1S)-1-(piperidin-4-yl)ethyl]amino}phenyl)-1,3,4-oxadiazol-2(3H)-one hydrochloride], in assay [1], the IC50 came out at 1 nM. Moreover, the GI50 in assay [2] stood at 75 nM.
`C[C@H](Nc1cc(-c2n[nH]c(=O)o2)cc(Cl)c1Cl)[C@H]1C[C@@H](N)C1` [Example 179, 5-[3-({(1S)-1-[(1s,3R)-3-aminocyclobutyl]ethyl}amino)-4,5-dichlorophenyl]-1,3,4-oxadiazol-2(3H)-one dihydrochloride]: in assay [1], the IC50 stood at 2 nM. The GI50 in assay [2] came to 23 nM.
Compound `C[C@H](Nc1cc(-c2n[nH]c(=O)o2)ccc1C(F)(F)F)C1CCCNCC1` (stereo partly drawn) [Example 157, 5-[3-{[(1S)-1-(azepan-4-yl)ethyl]amino}-4-(trifluoromethyl)phenyl]-1,3,4-oxadiazol-2(3H)-one hydrochloride] registered an IC50 in assay [1] of 3.3 nM. For the same compound, the GI50 in assay [2] was 65 nM.
In the same order, the values of `O=c1[nH]nc(-c2ccc(C(F)(F)F)c(/C=C/C3CCNCC3)c2)o1` [Example 30, 5-{3-[(E)-2-(piperidin-4-yl)ethenyl]-4-(trifluoromethyl)phenyl}-1,3,4-oxadiazol-2(3H)-one hydrochloride] are 24 nM and 970 nM.
The like results for `C[C@H](Nc1cc(-c2n[nH]c(=O)o2)ccc1Br)[C@H]1CC[C@H](N)CC1` [Example 154, 5-[3-({(1S)-1-[(1r,4S)-4-aminocyclohexyl]ethyl}amino)-4-bromophenyl]-1,3,4-oxadiazol-2(3H)-one hydrochloride] were, in that order, 2.4 nM and 35 nM.
The like results for `C[C@H](Nc1cc(-c2n[nH]c(=O)o2)cc(F)c1OC(F)(F)F)[C@H]1C[C@@H](N)C1` [Example 180, 5-[3-({(1S)-1-[(1s,3R)-3-aminocyclobutyl]ethyl}amino)-5-fluoro-4-(trifluoromethoxy)phenyl]-1,3,4-oxadiazol-2(3H)-one hydrochloride] were, in that order, 2.2 nM and 30 nM.
With `CN(C[C@H]1CC[C@H](N)CC1)c1cc(-c2n[nH]c(=O)o2)ccc1C(F)(F)F` [Example 130, 5-{3-[{[(1r,4r)-4-aminocyclohexyl]methyl}(methyl)amino]-4-(trifluoromethyl)phenyl}-1,3,4-oxadiazol-2(3H)-one hydrochloride], in assay [1], inhibition was half-maximal at 19 nM (IC50). Besides, the GI50 in assay [2] came to 280 nM.
In turn, `O=c1[nH]nc(-c2ccc(C(F)(F)F)c(N3CCC4(CC3)CNC4)c2)o1` [Example 16, 5-[3-(2,7-diazaspiro[3.5]nonan-7-yl)-4-(trifluoromethyl)phenyl]-1,3,4-oxadiazol-2(3H)-one hydrochloride] displayed an IC50 in assay [1] of 53 nM. Besides, in assay [2], the GI50 was found to be 2400 nM.
As for `N[C@H]1CC[C@H](Nc2cc(-c3n[nH]c(=O)o3)ccc2OC(F)(F)F)CC1` [Example 38, 5-[3-{[(1r,4r)-4-aminocyclohexyl]amino}-4-(trifluoromethoxy)phenyl]-1,3,4-oxadiazol-2(3H)-one hydrochloride], the IC50 in assay [1] amounted to 20 nM. In addition, the GI50 in assay [2] was 550 nM.
On to `CC1(CNc2cc(-c3n[nH]c(=O)o3)ccc2C(F)(F)F)CCNCC1` [Example 57, 5-[3-{[(4-methylpiperidin-4-yl)methyl]amino}-4-(trifluoromethyl)phenyl]-1,3,4-oxadiazol-2(3H)-one hydrochloride], for which the 50% inhibitory concentration (IC50) in assay [1] turned out to be 6 nM. Moreover, the GI50 in assay [2] came to 370 nM.
On to `O=c1[nH]nc(-c2ccc(C(F)(F)F)c(NCCC3CCCNC3)c2)o1` (stereo not drawn) [Example 60, 5-[3-{[2-(piperidin-3-yl)ethyl]amino}-4-(trifluoromethyl)phenyl]-1,3,4-oxadiazol-2(3H)-one hydrochloride], for which, in assay [1], the IC50 was 13 nM. In addition, the GI50 in assay [2] amounted to 3100 nM.
As for `C[C@H](Nc1cc(-c2n[nH]c(=O)o2)cc(C#N)c1Cl)C1CCNCC1` [Example 110, 2-chloro-5-(5-oxo-4,5-dihydro-1,3,4-oxadiazol-2-yl)-3-{[(1S)-1-(piperidin-4-yl)ethyl]amino}benzonitrile hydrochloride], in assay [1], 3.5 nM corresponded to half-maximal inhibition (IC50). In addition, the GI50 in assay [2] was 2100 nM.
`NCCC1CCN(c2cc(-c3n[nH]c(=O)o3)cc3[nH]ncc23)CC1` [Example 12, 5-{4-[4-(2-aminoethyl)piperidin-1-yl]-1H-indazol-6-yl}-1,3,4-oxadiazol-2(3H)-one dihydrochloride] registered an IC50 in assay [1] of 13 nM. The GI50 in assay [2] was 5100 nM.
`C[C@H](Nc1cc(-c2n[nH]c(=O)o2)ccc1Cl)[C@@H]1C[C@H](N)C1(C)C` [Example 158, 5-[3-({(1S)-1-[(1R,3S)-3-amino-2,2-dimethylcyclobutyl]ethyl}amino)-4-chlorophenyl]-1,3,4-oxadiazol-2(3H)-one hydrochloride] registered an IC50 in assay [1] of 3.3 nM. For the same compound, the GI50 in assay [2] is 37 nM.
`C[C@H](Nc1cc(-c2n[nH]c(=O)o2)c(Cl)cc1Cl)C1CCNCC1` [Example 96, 5-(2,4-dichloro-5-{[(1S)-1-(piperidin-4-yl)ethyl]amino}phenyl)-1,3,4-oxadiazol-2(3H)-one hydrochloride] registered an IC50 in assay [1] of 6.2 nM. Moreover, the GI50 in assay [2] stood at 380 nM.
The like results for `C[C@H](Nc1cc(-c2n[nH]c(=O)o2)ccc1C(F)(F)F)[C@@H]1CCC[C@H](N)C1` [Example 191, 5-[3-({(1S)-1-[(1R,3S)-3-aminocyclohexyl]ethyl}amino)-4-(trifluoromethyl)phenyl]-1,3,4-oxadiazol-2(3H)-one hydrochloride] were, in that order, 11 nM and 160 nM.
In turn, `CC(C)(CN)C1CCN(c2cc(-c3n[nH]c(=O)o3)ccc2C(F)(F)F)CC1` [Example 13, 5-{3-[4-(1-amino-2-methylpropan-2-yl)piperidin-1-yl]-4-(trifluoromethyl)phenyl}-1,3,4-oxadiazol-2(3H)-one] registered an IC50 in assay [1] of 30 nM. The GI50 in assay [2] was determined as 540 nM.
In assay [1], `C[C@H](Nc1cc(-c2n[nH]c(=O)o2)cc(F)c1Cl)C1CCNCC1` [Example 76, 5-(4-chloro-3-fluoro-5-{[(1S)-1-(piperidin-4-yl)ethyl]amino}phenyl)-1,3,4-oxadiazol-2(3H)-one hydrochloride] yielded an IC50 of 1.9 nM. In assay [2], the GI50 was 31 nM.
Take `CC(CC1CCNCC1)Nc1cc(-c2n[nH]c(=O)o2)ccc1C(F)(F)F` (stereo not drawn) [Example 81, 5-[3-{[1-(piperidin-4-yl)propan-2-yl]amino}-4-(trifluoromethyl)phenyl]-1,3,4-oxadiazol-2(3H)-one hydrochloride]: the midpoint of inhibition in assay [1], the IC50, lay at 4.3 nM. For the same compound, the GI50 in assay [2] stood at 600 nM.
With `C[C@H](Nc1cc(-c2n[nH]c(=O)o2)cc(F)c1C(F)(F)F)[C@@H]1C[C@H](N)C1(C)C` [Example 150, 5-[3-({(1S)-1-[(1R,3S)-3-amino-2,2-dimethylcyclobutyl]ethyl}amino)-5-fluoro-4-(trifluoromethyl)phenyl]-1,3,4-oxadiazol-2(3H)-one hydrochloride], it took 2 nM to reach half-maximal inhibition in assay [1] (IC50). In assay [2], the GI50 is 9.2 nM.
